Experimental data taken from patent publication US20230183292A1, “IMMUNOMODULATORS” (priority 2020, published 2023).
Starred links: 1 amine or outer side, 2 acyl side, 3 side chain; linkers in the order of their positions; H or OH if unused. Positions of bridges follow the written chain, without caps; N, C: chain ends. Non-standard residues stand in square brackets, D forms with d. Residues, ends and D or L forms follow the SMILES beside them. Groups on a side chain read outwards from the residue. *: point of attachment. X20 = CC(C)CCC[C@@H](C)[C@H]1CC[C@H]2[C@@H]3CC[C@H]4C[C@H](NC[C@H](N[*:1])C(=O)[*:2])CC[C@]4(C)[C@H]3CC[C@]12C; Chenodeoxycholyl = C[C@H](CCC(=O)*)[C@H]1CC[C@H]2[C@@H]3[C@H](O)C[C@@H]4C[C@H](O)CC[C@]4(C)[C@H]3CC[C@]12C; Ursodeoxycholyl = C[C@H](CCC(=O)*)[C@H]1CC[C@H]2[C@@H]3[C@@H](O)C[C@@H]4C[C@H](O)CC[C@]4(C)[C@H]3CC[C@]12C; Cholyl = C[C@H](CCC(=O)*)[C@H]1CC[C@H]2[C@@H]3[C@H](O)C[C@@H]4C[C@H](O)CC[C@]4(C)[C@H]3C[C@H](O)[C@]12C; Dehydrocholoyl = C[C@H](CCC(=O)*)[C@H]1CC[C@H]2[C@@H]3C(=O)C[C@@H]4CC(=O)CC[C@]4(C)[C@H]3CC(=O)[C@]12C; Deoxycholoyl = C[C@H](CCC(=O)*)[C@H]1CC[C@H]2[C@@H]3CC[C@@H]4C[C@H](O)CC[C@]4(C)[C@H]3C[C@H](O)[C@]12C; X27 = O=C(Cn1cc(C[C@H](N[*:1])C(=O)[*:2])c2ccccc21)Oc1ccccc1; X22 = O=C(Cn1cc(C[C@H](N[*:1])C(=O)[*:2])c2ccccc21)NCCC1CC1; X4 = O=C(Cn1cc(C[C@H](N[*:1])C(=O)[*:2])c2ccccc21)OCCOCCO; Trp(1-CH2CO2Me) = COC(=O)Cn1cc(C[C@H](N)C(=O)O)c2ccccc21; Trp(1-CH2COOH) = N[C@@H](Cc1cn(CC(=O)O)c2ccccc12)C(=O)O; Pro(4R-Me) = C[C@H]1CN[C@H](C(=O)O)C1; Hyp = O=C(O)[C@@H]1C[C@@H](O)CN1; NMeNle = CCCC[C@H](NC)C(=O)O; NMeA = CN[C@@H](C)C(=O)O; Dab = NCC[C@H](N)C(=O)O; Dap = NC[C@H](N)C(=O)O

Molecular target: T1, PD-1/PD-L1 (Homo sapiens, UniProt Q9NZQ7)
T1 construct: TVMV protease site (C); made in house; host or cells: HEK293T cells
Assay: PD-1/PD-L1 Homogenous Time-Resolved Fluorescence (HTRF) binding assay
Settings: HTRF IC50, PD-L1-His 10 nM, PD-1-Ig 20 nM
Method in brief: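 Inhibitors pre-incubated 15 min with PD-L1-His (10 nM final) in dPBS, 0.1% BSA, 0.05% Tween-20, then 15 min with PD-1-Ig (20 nM final). Eu-cryptate anti-Ig (1 nM) and APC anti-His (20 nM) added, 30 min equilibration; HTRF 665/620 nm ratio. Human ECD proteins from HEK293T.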

T1 sequence (Q9NZQ7 18-239): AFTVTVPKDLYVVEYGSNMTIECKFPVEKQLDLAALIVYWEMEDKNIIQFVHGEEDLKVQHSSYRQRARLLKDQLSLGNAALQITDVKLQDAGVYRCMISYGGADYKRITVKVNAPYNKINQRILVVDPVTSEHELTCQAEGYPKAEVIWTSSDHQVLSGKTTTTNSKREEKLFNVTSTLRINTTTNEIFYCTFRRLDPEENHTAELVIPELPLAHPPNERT

SMILES	IC50 [nM]
CCCC[C@H]1C(=O)N(C)[C@@H](CCCC)C(=O)N[C@@H](CC(C)C)C(=O)N[C@H](C(=O)NCC(N)=O)CSCC(=O)N[C@@H](Cc2ccc(O)cc2)C(=O)N(C)[C@@H](C)C(=O)N[C@@H](CC(N)=O)C(=O)N2CCC[C@H]2C(=O)N[C@@H](CN[C@@H]2CC[C@@]3(C)[C@@H](CC[C@@H]4[C@@H]3CC[C@]3(C)[C@@H]([C@H](C)CCCC(C)C)CC[C@@H]43)C2)C(=O)N[C@@H](CC(C)C)C(=O)N2C[C@H](O)C[C@H]2C(=O)N[C@@H](Cc2c[nH]c3ccccc23)C(=O)N[C@@H](CCN)C(=O)N[C@@H](Cc2cn(CC(=O)O)c3ccccc23)C(=O)N1C [Example 3009] ({CH2CO}-Y[NMeA]NP[X20]L[Hyp]W[Dab][Trp(1-CH2COOH)][NMeNle][NMeNle]LCG-NH2; thioether N-14)	130
CCCC[C@H]1C(=O)N(C)[C@@H](CCCC)C(=O)N[C@@H](CC(C)C)C(=O)N[C@H](C(=O)NCC(N)=O)CSCC(=O)N[C@@H](Cc2ccc(O)cc2)C(=O)N(C)[C@@H](C)C(=O)N[C@@H](CC(N)=O)C(=O)N2CCC[C@H]2C(=O)N[C@@H](CNC(=O)CC[C@@H](C)[C@H]2CC[C@H]3[C@@H]4C(=O)C[C@@H]5CC(=O)CC[C@]5(C)[C@H]4CC(=O)[C@]23C)C(=O)N[C@@H](CC(C)C)C(=O)N2C[C@H](O)C[C@H]2C(=O)N[C@@H](Cc2c[nH]c3ccccc23)C(=O)N[C@@H](CCNC(=O)CC[C@@H](C)[C@H]2CC[C@H]3[C@@H]4C(=O)C[C@@H]5CC(=O)CC[C@]5(C)[C@H]4CC(=O)[C@]23C)C(=O)N[C@@H](Cc2cn(CC(=O)Oc3ccccc3)c3ccccc23)C(=O)N1C [Example 2015] ({CH2CO}-Y[NMeA]NP[Dap](Dehydrocholoyl)L[Hyp]W[Dab](Dehydrocholoyl)[X27][NMeNle][NMeNle]LCG-NH2; thioether N-14)	20

Same assay, conditions: PD-L1-His 10 nM, PD-1-Ig 20 nM; read-out: HTRF IC50

SMILES	IC50 [nM]
CCCC[C@H]1C(=O)N(C)[C@@H](CCCC)C(=O)N[C@@H](CC(C)C)C(=O)N[C@H](C(=O)NCC(N)=O)CSCC(=O)N[C@@H](Cc2ccc(O)cc2)C(=O)N(C)[C@@H](C)C(=O)N[C@@H](CC(N)=O)C(=O)N2CCC[C@H]2C(=O)N[C@@H](CNC(=O)CC[C@@H](C)[C@H]2CC[C@H]3[C@@H]4C(=O)C[C@@H]5CC(=O)CC[C@]5(C)[C@H]4CC(=O)[C@]23C)C(=O)N[C@@H](CC(C)C)C(=O)N2C[C@H](O)C[C@H]2C(=O)N[C@@H](Cc2c[nH]c3ccccc23)C(=O)N[C@@H](CCNC(=O)CC[C@@H](C)[C@H]2CC[C@H]3[C@@H]4C(=O)C[C@@H]5CC(=O)CC[C@]5(C)[C@H]4CC(=O)[C@]23C)C(=O)N[C@@H](Cc2cn(CC(=O)OCCOCCO)c3ccccc23)C(=O)N1C [Example 2016] ({CH2CO}-Y[NMeA]NP[Dap](Dehydrocholoyl)L[Hyp]W[Dab](Dehydrocholoyl)[X4][NMeNle][NMeNle]LCG-NH2; thioether N-14)	15
CCCC[C@H]1C(=O)N(C)[C@@H](CCCC)C(=O)N[C@@H](CC(C)C)C(=O)N[C@H](C(=O)NCC(N)=O)CSCC(=O)N[C@@H](Cc2ccc(O)cc2)C(=O)N(C)[C@@H](C)C(=O)N[C@@H](CC(N)=O)C(=O)N2CCC[C@H]2C(=O)N[C@@H](CNC(=O)CNC(=O)CC[C@@H](C)[C@H]2CC[C@H]3[C@@H]4[C@H](O)C[C@@H]5C[C@H](O)CC[C@]5(C)[C@H]4C[C@H](O)[C@]23C)C(=O)N[C@@H](CC(C)C)C(=O)N2C[C@H](C)C[C@H]2C(=O)N[C@@H](Cc2c[nH]c3ccccc23)C(=O)N[C@@H](CCNC(=O)CNC(=O)CC[C@@H](C)[C@H]2CC[C@H]3[C@@H]4[C@H](O)C[C@@H]5C[C@H](O)CC[C@]5(C)[C@H]4C[C@H](O)[C@]23C)C(=O)N[C@@H](Cc2cn(CC(=O)NCCC3CC3)c3ccccc23)C(=O)N1C [Example 2028] ({CH2CO}-Y[NMeA]NP[Dap]([Gly-Cholyl])L[Pro(4R-Me)]W[Dab]([Gly-Cholyl])[X22][NMeNle][NMeNle]LCG-NH2; thioether N-14)	660
CCCC[C@H]1C(=O)N(C)[C@@H](CCCC)C(=O)N[C@@H](CC(C)C)C(=O)N[C@H](C(=O)NCC(N)=O)CSCC(=O)N[C@@H](Cc2ccc(O)cc2)C(=O)N(C)[C@@H](C)C(=O)N[C@@H](CC(N)=O)C(=O)N2CCC[C@H]2CN[C@@H](CNC(=O)CC[C@@H](C)[C@H]2CC[C@H]3[C@@H]4C(=O)C[C@@H]5CC(=O)CC[C@]5(C)[C@H]4CC(=O)[C@]23C)C(=O)N[C@@H](CC(C)C)C(=O)N2C[C@H](O)C[C@H]2C(=O)N[C@@H](Cc2c[nH]c3ccccc23)C(=O)N[C@@H](CCNC(=O)CC[C@@H](C)[C@H]2CC[C@H]3[C@@H]4C(=O)C[C@@H]5CC(=O)CC[C@]5(C)[C@H]4CC(=O)[C@]23C)C(=O)N[C@@H](Cc2cn(CC(=O)OC3CC3)c3ccccc23)C(=O)N1C [Example 2012]	27
CCCC[C@H]1C(=O)N(C)[C@@H](CCCC)C(=O)N[C@@H](CC(C)C)C(=O)N[C@H](C(=O)NCC(N)=O)CSCC(=O)N[C@@H](Cc2ccc(O)cc2)C(=O)N(C)[C@@H](C)C(=O)N[C@@H](CC(N)=O)C(=O)N2CCC[C@H]2C(=O)N[C@@H](CNC(=O)CC[C@@H](C)[C@H]2CC[C@H]3[C@@H]4[C@H](O)C[C@@H]5C[C@H](O)CC[C@]5(C)[C@H]4CC[C@]23C)C(=O)N[C@@H](CC(C)C)C(=O)N2C[C@H](O)C[C@H]2C(=O)N[C@@H](Cc2c[nH]c3ccccc23)C(=O)N[C@@H](CCNC(=O)CC[C@@H](C)[C@H]2CC[C@H]3[C@@H]4[C@H](O)C[C@@H]5C[C@H](O)CC[C@]5(C)[C@H]4CC[C@]23C)C(=O)N[C@@H](Cc2cn(CC(=O)O)c3ccccc23)C(=O)N1C [Example 1013] ({CH2CO}-Y[NMeA]NP[Dap](Chenodeoxycholyl)L[Hyp]W[Dab](Chenodeoxycholyl)[Trp(1-CH2COOH)][NMeNle][NMeNle]LCG-NH2; thioether N-14)	460
CCCC[C@H]1C(=O)N(C)[C@@H](CCCC)C(=O)N[C@@H](CC(C)C)C(=O)N[C@H](C(=O)NCC(N)=O)CSCC(=O)N[C@@H](Cc2ccc(O)cc2)C(=O)N(C)[C@@H](C)C(=O)N[C@@H](CC(N)=O)C(=O)N2CCC[C@H]2C(=O)N[C@@H](CNC(=O)CC[C@@H](C)[C@H]2CC[C@H]3[C@@H]4[C@@H](O)C[C@@H]5C[C@H](O)CC[C@]5(C)[C@H]4CC[C@]23C)C(=O)N[C@@H](CC(C)C)C(=O)N2C[C@H](O)C[C@H]2C(=O)N[C@@H](Cc2c[nH]c3ccccc23)C(=O)N[C@@H](CCNC(=O)CC[C@@H](C)[C@H]2CC[C@H]3[C@@H]4[C@@H](O)C[C@@H]5C[C@H](O)CC[C@]5(C)[C@H]4CC[C@]23C)C(=O)N[C@@H](Cc2cn(CC(=O)OC)c3ccccc23)C(=O)N1C [Example 1006] ({CH2CO}-Y[NMeA]NP[Dap](Ursodeoxycholyl)L[Hyp]W[Dab](Ursodeoxycholyl)[Trp(1-CH2CO2Me)][NMeNle][NMeNle]LCG-NH2; thioether N-14)	> 10000
CCCC[C@H]1C(=O)N(C)[C@@H](CCCC)C(=O)N[C@@H](CC(C)C)C(=O)N[C@H](C(=O)NCC(N)=O)CSCC(=O)N[C@@H](Cc2ccc(O)cc2)C(=O)N(C)[C@@H](C)C(=O)N[C@@H](CC(N)=O)C(=O)N2CCC[C@H]2C(=O)N[C@@H](CNC(=O)CC[C@@H](C)[C@H]2CC[C@H]3[C@@H]4CC[C@@H]5C[C@H](O)CC[C@]5(C)[C@H]4C[C@H](O)[C@]23C)C(=O)N[C@@H](CC(C)C)C(=O)N2C[C@H](O)C[C@H]2C(=O)N[C@@H](Cc2c[nH]c3ccccc23)C(=O)N[C@@H](CCNC(=O)CC[C@@H](C)[C@H]2CC[C@H]3[C@@H]4[C@H](O)C[C@@H]5C[C@H](O)CC[C@]5(C)[C@H]4CC[C@]23C)C(=O)N[C@@H](Cc2cn(CC(=O)O)c3ccccc23)C(=O)N1C [Example 1002] ({CH2CO}-Y[NMeA]NP[Dap](Deoxycholoyl)L[Hyp]W[Dab](Chenodeoxycholyl)[Trp(1-CH2COOH)][NMeNle][NMeNle]LCG-NH2; thioether N-14)	11
CCCC[C@H]1C(=O)N(C)[C@@H](CCCC)C(=O)N[C@@H](CC(C)C)C(=O)N[C@H](C(=O)NCC(N)=O)CSCC(=O)N[C@@H](Cc2ccc(O)cc2)C(=O)N(C)[C@@H](C)C(=O)N[C@@H](CC(N)=O)C(=O)N2CCC[C@H]2CN[C@@H](CNC(=O)CC[C@@H](C)[C@H]2CC[C@H]3[C@@H]4[C@H](O)C[C@@H]5C[C@H](O)CC[C@]5(C)[C@H]4C[C@H](O)[C@]23C)C(=O)N[C@@H](CC(C)C)C(=O)N2C[C@H](O)C[C@H]2C(=O)N[C@@H](Cc2c[nH]c3ccccc23)C(=O)N[C@@H](CCNC(=O)CC[C@@H](C)[C@H]2CC[C@H]3[C@@H]4[C@H](O)C[C@@H]5C[C@H](O)CC[C@]5(C)[C@H]4C[C@H](O)[C@]23C)C(=O)N[C@@H](Cc2cn(CC(=O)NC3CC3)c3ccccc23)C(=O)N1C [Example 2009]	2900
CCCC[C@H]1C(=O)N(C)[C@@H](CCCC)C(=O)N[C@@H](CC(C)C)C(=O)N[C@H](C(=O)NCC(N)=O)CSCC(=O)N[C@@H](Cc2ccc(O)cc2)C(=O)N(C)[C@@H](C)C(=O)N[C@@H](CC(N)=O)C(=O)N2CCC[C@H]2C(=O)N[C@@H](CNC(=O)CC[C@@H](C)[C@H]2CC[C@H]3[C@@H]4[C@H](O)C[C@@H]5C[C@H](O)CC[C@]5(C)[C@H]4CC[C@]23C)C(=O)N[C@@H](CC(C)C)C(=O)N2C[C@H](O)C[C@H]2C(=O)N[C@@H](Cc2c[nH]c3ccccc23)C(=O)N[C@@H](CCNC(=O)CC[C@@H](C)[C@H]2CC[C@H]3[C@@H]4[C@H](O)C[C@@H]5C[C@H](O)CC[C@]5(C)[C@H]4CC[C@]23C)C(=O)N[C@@H](Cc2cn(CC(=O)OC)c3ccccc23)C(=O)N1C [Example 1005] ({CH2CO}-Y[NMeA]NP[Dap](Chenodeoxycholyl)L[Hyp]W[Dab](Chenodeoxycholyl)[Trp(1-CH2CO2Me)][NMeNle][NMeNle]LCG-NH2; thioether N-14)	8400
